# Columns and labels:
# [1] = tested on: Ebolavirus; test: Antiviral activity against Ebola virus infected in Vero E6 cells assessed as virus-induced cytopathic effect incubated for 3 days by CPE assay; format: functional, organism-based; conditions: Orthoebolavirus, Vero C1008, 72 h
# [2] = Cytotoxicity against African green monkey Vero E6 cells assessed as reduction in cell growth; format: toxicity, cell-based; conditions: chlorocebus sabaeus
# [3] = tested on: Vaccinia virus; test: Antiviral activity against Vaccinia virus; format: functional, organism-based; conditions: Orthopoxvirus vaccinia
# [4] = Cytotoxicity against human HFF cells; format: toxicity, cell-based
# [5] = tested on: Human alphaherpesvirus 3; test: Antiviral activity against Varicella zoster virus infected in human HEL cells assessed as reduction in plaque formation incubated for 72 hrs; format: functional, organism-based; conditions: Human alphaherpesvirus 3, HEL
# [6] = Cytotoxicity against human HEL cells; format: toxicity, cell-based
# [7] = Cytotoxicity against human HEL 299 cells; format: toxicity, cell-based
# [8] = tested on: Human alphaherpesvirus 1; test: Antiviral activity against HSV-1; format: functional, organism-based
# [9] = tested on: Human alphaherpesvirus 2; test: Antiviral activity against HSV-2; format: functional, organism-based
# [10] = tested on: Human betaherpesvirus 5; test: Antiviral activity against HCMV; format: functional, organism-based
# [11] = tested on: HEL; test: Cytotoxicity against human HEL cells assessed as reduction in cell viability incubated for 24 hrs by MTT assay; format: functional
# [12] = tested on: Human alphaherpesvirus 3; test: Antiviral activity against Varicella zoster virus infected in human HEL cells assessed as reduction in plaque formation; format: functional, organism-based; conditions: Human alphaherpesvirus 3, HEL
# [13] = tested on: SARS-CoV; test: Antiviral activity against SARS-CoV Urbani infected in Vero E6 cells at 0.01 to 0.025 MOI assessed as inhibition of virus induced cytopathic effect; format: functional, organism-based; conditions: Severe acute respiratory syndrome-related coronavirus, Vero C1008
# [14] = Cytotoxicity against African green monkey Vero E6 cells assessed as reduction in cell viability by neutral red uptake assay; format: toxicity, cell-based, Vero C1008; conditions: chlorocebus sabaeus
# [15] = tested on: Human coronavirus OC43; test: Antiviral activity against Human coronavirus OC43 infected in Vero cells assessed as reduction in viral replication pre-incubated with virus for 1 hr followed by washout and compound treatment and measured after 3 days by qRT-PCR analysis; format: functional, organism-based; conditions: Betacoronavirus 1, Vero
# [16] = Cytotoxicity against African green monkey Vero cells; format: toxicity, cell-based; conditions: chlorocebus sabaeus
# [17] = target: Replicase polyprotein 1ab (Severe acute respiratory syndrome coronavirus 2, UniProt P0DTD1); test: Inhibition of C-terminal SARS-CoV-2 nsp14 N7-methyltransferase activity incubated for 30 mins in presence of SAM by Liquid scintillation analysis
# [18] = tested on: Human alphaherpesvirus 3; test: Antiviral activity against Varicella zoster virus infected in human HEL cells assessed as inhibition of plaque formation measured for 3 days; format: functional, organism-based; conditions: Human alphaherpesvirus 3, HEL, 72 h
# [19] = tested on: HMEC-1; test: Cytotoxicity against human HMEC-1 cells assessed as reduction in cell growth incubated for 24 hrs; format: functional
# [20] = tested on: Influenza A virus; test: Antiviral activity against influenza A virus A/WSN/33 (H1N1) infected in dog MDCK cells assessed as reduction in virus induced cytopathic effect measured after 48 hrs by crystal violet staining based assay; format: functional, organism-based
# [21] = tested on: Influenza A virus; test: Antiviral activity against Influenza virus H3N2 (A/Hong Kong/8/68) infected in dog MDCK cells assessed as reduction in virus induced cytopathic effect measured after 48 hrs by crystal violet staining based assay; format: functional, organism-based
# [22] = Cytotoxicity against dog MDCK cells assessed as reduction in cell viability incubated for 72 hrs by CCK-8 assay; format: toxicity, cell-based, Canis lupus familiaris
# [23] = target: Histone-lysine N-methyltransferase SETD2 (Homo sapiens, UniProt Q9BYW2); test: Inhibition of human recombinant […] N-terminal His-tagged SETD2 (1347to1711 residues) extracted from Escherichia coli BL21 (DE3) using biotin-tagged Histone H3 and 3H-SAM as substrate incubated for 1 hr by TopCount scintillation proximity assay
# [24] = tested on: Influenza A virus; test: Antiviral activity against influenza A virus H1N1 infected in dog MDCK cells assessed as reduction in virus induced cytopathic effect by CPE assay; format: functional, organism-based
# [25] = tested on: Influenza A virus; test: Anti-influenza activity against influenza A virus H3N2 (A/California/2014) infected in dog MDCK cells incubated for 72 hrs by MTT assay; format: functional, organism-based
# [26] = Cytotoxicity against dog MDCK cells assessed as reduction in cell viability incubated for 48 hrs by CCK-8 assay; format: toxicity, cell-based, Canis lupus familiaris
# [27] = Cytotoxicity against African green monkey Vero E6 cells assessed as reduction in cell viability by Cell titer-Glo luminescent assay; format: toxicity, cell-based; conditions: chlorocebus sabaeus
# [28] = tested on: SARS-CoV; test: Antiviral activity against SARS-CoV Frankfurt-1 infected in Vero E6 cells assessed as reduction in viral replication; format: functional, organism-based; conditions: Severe acute respiratory syndrome-related coronavirus, Frankfurt-1, Vero C1008
# [29] = tested on: SARS-CoV; test: Antiviral activity against SARS-CoV HKU39849 infected in Vero E6 cells assessed as reduction in viral replication; format: functional, organism-based; conditions: Severe acute respiratory syndrome-related coronavirus, HKU39849, Vero C1008
# [30] = Cytotoxicity against African green monkey Vero E6 cells assessed as reduction in cell viability measured after 72 hrs by WST-1 assay; format: toxicity, cell-based, Vero C1008; conditions: chlorocebus sabaeus
# [31] = tested on: SARS-CoV-2; test: Antiviral activity against SARS CoV-2 Omicron B1.1.529 infected in Vero E6 cells at 0.02 MOI assessed as reduction in viral RNA growth incubated for 24 hrs by qRT-PCR analysis; format: functional, organism-based; conditions: Severe acute respiratory syndrome coronavirus 2, Omicron B1.1.529, Vero C1008, 24 h
# [32] = target: RNA-directed RNA polymerase (Hepacivirus hominis, UniProt O39930); test: Inhibition of Hepatitis C virus NS5B polymerase
# [33] = tested on: Hepatitis C virus; test: Antiviral activity against Hepatitis C virus infected in Vero E6 cells assessed as virus induced cytopathic effect; format: functional, organism-based, Hepacivirus hominis; conditions: Vero C1008
# [34] = tested on: Hepatitis C virus; test: Antiviral activity against Hepatitis C virus infected in human Huh-7 cells assessed as reduction in viral infection incubated for 72 hrs by qRT-PCR analysis; format: functional, organism-based, Hepacivirus hominis; conditions: Huh-7, 72 h
# Histone-lysine N-methyltransferase SETD2, sequence (Q9BYW2 whole entry, the tested form may be a part): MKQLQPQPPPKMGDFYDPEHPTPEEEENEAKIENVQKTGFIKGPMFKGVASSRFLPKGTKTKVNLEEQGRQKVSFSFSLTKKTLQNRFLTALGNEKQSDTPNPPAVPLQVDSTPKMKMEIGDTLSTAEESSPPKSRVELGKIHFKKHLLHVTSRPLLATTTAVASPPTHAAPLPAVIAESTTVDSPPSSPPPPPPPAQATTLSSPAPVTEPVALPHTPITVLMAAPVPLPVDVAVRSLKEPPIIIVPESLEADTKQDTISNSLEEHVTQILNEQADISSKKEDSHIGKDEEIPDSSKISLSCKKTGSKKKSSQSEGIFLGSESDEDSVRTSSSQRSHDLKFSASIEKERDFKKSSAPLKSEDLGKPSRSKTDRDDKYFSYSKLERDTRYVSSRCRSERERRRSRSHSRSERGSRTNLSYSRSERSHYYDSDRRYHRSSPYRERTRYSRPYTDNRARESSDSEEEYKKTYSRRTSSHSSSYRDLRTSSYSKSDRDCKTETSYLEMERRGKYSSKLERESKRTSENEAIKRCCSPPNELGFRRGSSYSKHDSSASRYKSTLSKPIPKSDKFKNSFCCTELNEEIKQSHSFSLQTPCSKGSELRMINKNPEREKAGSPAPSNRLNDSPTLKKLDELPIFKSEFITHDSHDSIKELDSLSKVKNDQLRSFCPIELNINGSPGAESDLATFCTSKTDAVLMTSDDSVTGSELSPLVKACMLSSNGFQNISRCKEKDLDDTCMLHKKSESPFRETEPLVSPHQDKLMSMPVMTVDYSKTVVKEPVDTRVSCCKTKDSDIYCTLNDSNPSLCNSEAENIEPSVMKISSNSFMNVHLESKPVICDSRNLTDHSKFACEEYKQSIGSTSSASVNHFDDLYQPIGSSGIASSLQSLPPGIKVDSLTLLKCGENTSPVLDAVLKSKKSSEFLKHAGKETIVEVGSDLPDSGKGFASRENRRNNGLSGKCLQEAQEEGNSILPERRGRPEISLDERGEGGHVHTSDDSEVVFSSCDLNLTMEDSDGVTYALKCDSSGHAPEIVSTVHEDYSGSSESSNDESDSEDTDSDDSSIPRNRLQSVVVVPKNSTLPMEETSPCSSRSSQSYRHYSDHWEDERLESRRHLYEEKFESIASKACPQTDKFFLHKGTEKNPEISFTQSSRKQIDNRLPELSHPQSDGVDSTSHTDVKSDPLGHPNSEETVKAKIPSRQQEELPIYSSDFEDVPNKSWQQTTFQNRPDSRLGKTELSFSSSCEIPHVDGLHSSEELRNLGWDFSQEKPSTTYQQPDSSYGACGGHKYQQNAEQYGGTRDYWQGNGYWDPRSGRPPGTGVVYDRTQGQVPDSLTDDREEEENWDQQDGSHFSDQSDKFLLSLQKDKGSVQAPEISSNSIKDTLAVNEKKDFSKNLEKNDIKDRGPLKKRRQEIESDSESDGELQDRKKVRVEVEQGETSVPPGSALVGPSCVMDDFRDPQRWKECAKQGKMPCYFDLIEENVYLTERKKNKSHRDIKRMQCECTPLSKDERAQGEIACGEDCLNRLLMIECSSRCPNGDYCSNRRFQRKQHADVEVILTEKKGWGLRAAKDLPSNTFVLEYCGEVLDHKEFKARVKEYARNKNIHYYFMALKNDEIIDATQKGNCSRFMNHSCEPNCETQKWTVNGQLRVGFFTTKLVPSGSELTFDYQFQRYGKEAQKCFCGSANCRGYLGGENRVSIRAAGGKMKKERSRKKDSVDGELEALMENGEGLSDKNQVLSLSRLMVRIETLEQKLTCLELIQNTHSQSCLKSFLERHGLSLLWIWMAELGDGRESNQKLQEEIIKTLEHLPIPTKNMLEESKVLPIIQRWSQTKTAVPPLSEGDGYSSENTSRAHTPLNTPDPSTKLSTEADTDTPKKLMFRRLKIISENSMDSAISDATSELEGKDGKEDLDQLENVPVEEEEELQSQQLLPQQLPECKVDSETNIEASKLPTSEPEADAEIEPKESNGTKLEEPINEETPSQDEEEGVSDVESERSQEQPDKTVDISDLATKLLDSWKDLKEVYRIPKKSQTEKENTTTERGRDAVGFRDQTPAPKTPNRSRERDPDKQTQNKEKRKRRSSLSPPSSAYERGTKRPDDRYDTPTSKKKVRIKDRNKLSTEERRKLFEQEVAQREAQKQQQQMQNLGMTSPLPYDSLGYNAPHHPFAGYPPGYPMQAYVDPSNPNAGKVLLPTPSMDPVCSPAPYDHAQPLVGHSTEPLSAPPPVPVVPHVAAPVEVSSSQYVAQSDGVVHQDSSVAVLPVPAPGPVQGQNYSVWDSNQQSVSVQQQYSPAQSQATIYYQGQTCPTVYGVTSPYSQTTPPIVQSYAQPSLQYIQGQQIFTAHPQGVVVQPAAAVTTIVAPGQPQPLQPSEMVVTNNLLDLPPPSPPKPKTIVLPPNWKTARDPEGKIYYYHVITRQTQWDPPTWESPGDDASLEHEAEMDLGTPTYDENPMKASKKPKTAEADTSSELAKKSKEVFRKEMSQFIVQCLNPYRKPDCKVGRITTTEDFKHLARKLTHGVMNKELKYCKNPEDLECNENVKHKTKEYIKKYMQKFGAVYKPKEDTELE
# RNA-directed RNA polymerase, sequence (O39930 whole entry): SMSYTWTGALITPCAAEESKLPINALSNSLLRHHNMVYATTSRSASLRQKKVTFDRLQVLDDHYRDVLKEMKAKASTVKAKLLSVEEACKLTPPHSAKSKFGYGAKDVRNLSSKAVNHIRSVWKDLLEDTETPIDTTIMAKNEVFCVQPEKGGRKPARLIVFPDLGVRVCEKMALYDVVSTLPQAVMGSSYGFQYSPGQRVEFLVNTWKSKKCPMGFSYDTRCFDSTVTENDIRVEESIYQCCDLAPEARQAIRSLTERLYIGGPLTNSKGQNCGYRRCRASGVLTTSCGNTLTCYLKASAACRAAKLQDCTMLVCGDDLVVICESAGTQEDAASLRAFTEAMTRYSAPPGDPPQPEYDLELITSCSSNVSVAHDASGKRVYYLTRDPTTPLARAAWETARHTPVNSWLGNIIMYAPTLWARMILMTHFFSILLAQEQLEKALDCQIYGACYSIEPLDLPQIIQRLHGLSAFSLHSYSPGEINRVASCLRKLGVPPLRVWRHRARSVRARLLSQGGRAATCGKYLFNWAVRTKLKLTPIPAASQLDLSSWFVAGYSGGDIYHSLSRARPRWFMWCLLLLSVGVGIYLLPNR
structure (smiles),measurement,setting,value
Nc1nccc2c1ncn2[C@@H]1C=C(CO)[C@@H](O)[C@H]1O,EC50,[1],30 µM
same,CC50,[2],> 100 µM
CCCCCOCCCCCCCCCc1cc2cn([C@@H]3CC[C@H](CO)O3)c(=O)nc2o1,EC50,[3],0.19 µM
same,CC50,[4],> 100 µM
O=c1nc2oc(CCCCCCCCCCl)cc2cn1[C@H]1C[C@H](O)[C@@H](CO)O1,EC50,[5],0.012 µM
same,CC50,[6],200 µM
O=c1nc2oc(CCCCCCCCCF)cc2cn1[C@H]1C[C@H](O)[C@@H](CO)O1,EC50,[5],0.014 µM
same,CC50,[6],200 µM
O=c1nc2oc(CCCCCCCCCI)cc2cn1[C@H]1C[C@H](O)[C@@H](CO)O1,EC50,[5],0.034 µM
same,CC50,[6],> 200 µM
O=c1nc2oc(CCCCCCCCCBr)cc2cn1[C@H]1C[C@H](O)[C@@H](CO)O1,EC50,[5],0.031 µM
same,CC50,[6],> 50 µM
Nc1nc2c(ncn2C[Se]CCO)c(=O)[nH]1,CC50,[7],> 100 µM
same,EC50,[8],1.47 µM
same,EC50,[9],6.34 µM
Nc1nc2c(ncn2C[Se]C(CO)CO)c(=O)[nH]1,CC50,[7],> 100 µM
same,EC50,[10],53.1 µM
COc1ccc(C(OC[C@H]2O[C@@H](n3cc4c(nc3=O)Nc3ccccc3O4)[C@H](O)[C@@H]2O)(c2ccccc2)c2ccc(OC)cc2)cc1,CC50,[11],9.7 µM
same,EC50,[12],2.7 µM
COc1ccc(C(OC[C@H]2O[C@@H](n3cc4c(nc3=O)Nc3ccccc3O4)C[C@@H]2O)(c2ccccc2)c2ccc(OC)cc2)cc1,CC50,[11],12.2 µM
same,EC50,[12],1.5 µM
COc1ccc(C(OC[C@H]2O[C@@H](n3cc4c(nc3=O)Nc3c(OCCN)cccc3O4)C[C@@H]2O)(c2ccccc2)c2ccc(OC)cc2)cc1,CC50,[11],14.4 µM
same,EC50,[12],1.7 µM
O=c1nc2c(cn1[C@H]1C[C@H](O)[C@@H](CO)O1)Oc1ccccc1N2,CC50,[11],> 100 µM
C#Cc1c(C(N)=O)ncn1[C@@H]1O[C@H](CO)[C@@H](O)[C@H]1O,EC50,[13],> 40 µM
same,CC50,[14],> 40 µM
NC(=O)c1cc([C@@H]2O[C@H](CO)[C@@H](O)[C@H]2O)n2nc(CF)nc(N)c12,EC50,[15],1.3 µM
same,CC50,[16],45 µM
OC[C@@H]1O[C@H](n2cnc3cc(Br)c(Br)cc32)[C@@H](O)[C@H]1O,EC50,[10],1.2 µM
Nc1ncnc2c1c(C#Cc1cnc3ccccc3c1)cn2[C@@H]1O[C@H](CSCC[C@H](N)C(=O)O)[C@@H](O)[C@H]1O,IC50,[17],0.003 µM
C#CCn1c(=O)n(C(=O)c2ccccc2)c(=O)c2ccccc21,EC50,[18],5.4 µM
same,CC50,[19],11.2 µM
O[C@@H]1[C@H](O)[C@H](O)CO[C@H]1Cn1c(Br)nc2cc(Cl)c(Cl)cc21,EC50,[10],1.4 µM
Cc1ncnc2c1c(/C=C/c1ccccn1)cn2[C@@H]1O[C@H](CO)[C@@H](O)[C@@]1(C)F,EC50,[20],5.88 µM
same,EC50,[21],6.95 µM
same,CC50 at 72 h,[22],> 100 µM
O=c1c2ccccc2n(Cc2cn(CCCOCc3ccccc3)nn2)c(=O)n1Cc1ccc(F)cc1,EC50,[18],12.3 µM
O=c1c2ccccc2n(Cc2cn(CCCOCc3ccccc3)nn2)c(=O)n1Cc1ccccc1,EC50,[18],> 20 µM
C#CCn1c(=O)n(C(=O)c2ccccc2F)c(=O)c2ccccc21,EC50,[18],2.8 µM
same,CC50,[19],> 100 µM
Cc1nc(N)c2c(C(N)=O)cc([C@@H]3O[C@H](CO)[C@@H](O)[C@H]3O)n2n1,EC50,[15],0.65 µM
same,CC50,[16],45 µM
Cc1ncnc2c1c(/C=C/c1cccs1)cn2[C@@H]1O[C@H](CO)[C@@H](O)[C@@]1(C)F,EC50,[20],3.95 µM
same,EC50,[21],3.61 µM
same,CC50 at 72 h,[22],> 100 µM
Nc1ncnc2c1ncn2[C@@H]1O[C@H](C[C@H](CC[C@H](N)C(=O)O)NCc2ccccc2)[C@@H](O)[C@H]1O,IC50,[23],0.48 µM
Nc1nccc2c1ncn2[C@@H]1C[C@H](CO)[C@@H](O)[C@H]1O [3-DEAZAARISTEROMYCIN A],EC50,[1],2 µM
same,CC50,[2],> 100 µM
Nc1ccn(C[C@@H](CO)OCP(=O)(O)O)c(=O)n1 [CIDOFOVIR ANHYDROUS],EC50,[3],27.3 µM
same,CC50,[4],> 100 µM
NC(=O)c1nc(F)cnc1O [FAVIPIRAVIR],EC50,[24],0.03 mg/L
same,EC50,[25],0.07 mg/L
same,CC50 at 48 h,[26],> 100 µM
O=c1[nH]cnc2c([C@@H]3N[C@H](CO)[C@@H](O)[C@H]3O)c[nH]c12 [FORODESINE],CC50,[27],> 100 µM
CC(C)Nc1nc2cc(Cl)c(Cl)cc2n1[C@H]1O[C@@H](CO)[C@H](O)[C@@H]1O [MARIBAVIR],CC50,[27],> 100 µM
NC(=O)c1ncn([C@@H]2O[C@H](CO)[C@@H](O)[C@H]2O)c1O [MIZORIBINE],EC50,[28],3.5 mg/L
same,EC50,[29],16 mg/L
same,CC50 at 72 h,[30],> 200 mg/L
CC(C)C(=O)OC[C@H]1O[C@@H](n2ccc(NO)nc2=O)[C@H](O)[C@@H]1O [MOLNUPIRAVIR],CC50,[27],> 100 µM
same,EC50,[31],1.08 µM
COc1c(C)c2c(c(O)c1C/C=C(\C)CCC(=O)O)C(=O)OC2 [MYCOPHENOLIC ACID],EC50,[13],> 30 µM
same,CC50,[14],> 30 µM
O=c1nc(NO)ccn1[C@@H]1O[C@H](CO)[C@@H](O)[C@H]1O [N-HYDROXYCYTIDINE],IC50,[32],50 µM
same,EC50,[33],5 µM
COc1nc(N)nc2c1ncn2[C@@H]1O[C@H](CO)[C@@H](O)[C@@H]1O [NELARABINE],CC50,[27],> 100 µM
CCC(CC)COC(=O)[C@H](C)N[P@](=O)(OC[C@H]1O[C@@](C#N)(c2ccc3c(N)ncnn23)[C@H](O)[C@@H]1O)Oc1ccccc1 [REMDESIVIR],CC50,[27],> 100 µM
same,EC50,[31],0.981 µM
NC(=O)c1ncn([C@@H]2O[C@H](CO)[C@@H](O)[C@H]2O)n1 [RIBAVIRIN],EC50,[28],20 mg/L
same,EC50,[29],80 mg/L
same,CC50 at 72 h,[30],> 200 mg/L
CC(C)=CCNc1ncnc2c1ncn2[C@@H]1O[C@H](CO)[C@@H](O)[C@H]1O [RIBOPRINE],CC50,[27],> 100 µM
Nc1ncnc2c1ncn2[C@@H]1O[C@H](C[C@@H](N)CC[C@H](N)C(=O)O)[C@@H](O)[C@H]1O [SINEFUNGIN],IC50,[23],28.4 µM
CC(C)OC(=O)[C@H](C)N[P@](=O)(OC[C@H]1O[C@@H](n2ccc(=O)[nH]c2=O)[C@](C)(F)[C@@H]1O)Oc1ccccc1 [SOFOSBUVIR],EC50,[34],0.092 µM
OC[C@H]1O[C@@H](n2cnc3c(N[C@@H]4CCOC4)ncnc32)[C@H](O)[C@@H]1O [TECADENOSON],CC50,[27],> 100 µM
same,EC50,[31],1.13 µM
Nc1ncnc2c1ncn2[C@@H]1O[C@H](CO)[C@@H](O)[C@@H]1O [VIDARABINE],CC50,[27],> 100 µM
same,EC50,[31],0.251 µM

# Reference: ChEMBL document CHEMBL6114962, “Nucleoside antiviral agents with atypical structures and new targets” (Bioorg Med Chem Lett, 2025)
